Laboratory results from patent US20230165851A1, “6'-METHOXYCINCHONAN-9-OLS FOR THE TREATMENT OF CORONAVIRAL INFECTIONS” (Immunologik GmbH, priority 2020, published 2023).
Where a name gives a salt, the structure may show the parent alone. Read-outs that look alike come from different tables or passages of the source.

What was measured:
Vero-B4 cells = test: WST-1 cell viability (cytotoxicity) assay in non-infected Vero-B4 cells; settings: 3 days; for toxic effect (WST assay): antivirally effective concentrations
Protocol: Toxicity was assessed with a WST assay. Herein viable cells with an intact mitochondrial succinate-tetrazolium dehydrogenase system effect an enzymatic conversion of the feebly red tetrazolium salt WST-1 (4-[3-(4-iodophenyl)-2-(4-nitrophenyl)-2H-5-tetrazolio]-1,3 benzene disulfonate) into dark red formazan. This color change can be measured photometrically in a spectrophotometer. Thus, the WST assay is a very sensitive method for measuring the toxicity of substances on the cell metabolism.
In FIG. 4 the percentage of viable cells is depicted in comparison to untreated cells. The value for untreated cells was set to 100%. 1 μM staurosporine (an indolocarbazole compound from Streptomyces staurosporeus, an apoptosis inducer) was used as positive control.
In FIG. 8 the percentage of viable cells is depicted in comparison to untreated cells wherein the value for untreated cells was set to 100%. Again 1 μM staurosporine was used as positive control.

SARS-CoV-2 [1] = format: cell-based; settings: infected Vero-B4 cells, 3 dpi
SARS-CoV-2 [2] = format: cell-based; settings: infected Vero-B4 cells, 3 dpi; for inhibition of SARS-CoV-2 protein generation compared with same/respective concentration of chloroquine or hydroxychloroquine (densitometry): comparators at 10 μM
[3] = quinine sulfate series up to 100 μM

C=C[C@H]1C[N@@]2CC[C@H]1C[C@@H]2[C@@H](O)c1ccnc2ccc(OC)cc12 [quinidine sulfate]
toxic effect (WST assay) (Vero-B4 cells): did not display any significant toxic effect
concentration up to which no toxic effect was detectable (WST assay) (Vero-B4 cells; tested 2.5 to 80 μM): Up to 80 μM
reduction of SARS-CoV-2 RNA copies (qRT-PCR) (SARS-CoV-2 [1]; 2.5 μM, 5 μM, 10 μM and 20 μM): dose-dependent reduction
reduction of SARS-CoV-2 RNA copies (qRT-PCR) (SARS-CoV-2 [1]; 10 μM): approximately 82%
reduction compared with 10 μM chloroquine or 10 μM hydroxychloroquine (qRT-PCR) (SARS-CoV-2 [1]; 20 μM): significant better reduction
reduction of SARS-CoV-2 RNA copies (qRT-PCR) (SARS-CoV-2 [1]; 20 μM): approximately 97%
block of virus replication (Western blot) (SARS-CoV-2 [2]; 20 μM): nearly complete block of virus replication
inhibition of SARS-CoV-2 replication (Western blot) (SARS-CoV-2 [2]; 2.5, 5, 10 and 20 μM): dose-dependent inhibition
generation of SARS-CoV-2 proteins (densitometric evaluation of nucleoprotein in virus fraction) (SARS-CoV-2 [2]; 2.5 to 20 μM): inhibited in a dose-dependent manner
inhibition of SARS-CoV-2 protein generation compared with same/respective concentration of chloroquine or hydroxychloroquine (densitometry) (SARS-CoV-2 [2]): higher percentage
reduction compared with 10 μM chloroquine or 10 μM hydroxychloroquine (Western blot) (SARS-CoV-2 [2]; quinidine sulfate series up to 20 μM): clearly higher

C=C[C@H]1C[N@@]2CC[C@H]1C[C@H]2[C@H](O)c1ccnc2ccc(OC)cc12 [quinine sulfate]
toxic effect (WST assay) (Vero-B4 cells): did not display any significant toxic effect
reduction in the amount of SARS-CoV-2 RNA copies (qRT-PCR) (SARS-CoV-2 [1]; 100 nM, 1 μM, 10 μM and 100 μM): dose-dependent reduction
reduction of SARS-CoV-2 RNA copies (qRT-PCR) (SARS-CoV-2 [1]; 10 μM): approximately 85%
block of virus spread (qRT-PCR) (SARS-CoV-2 [1]; 100 μM): complete block of virus spread
reduction compared with 10 μM chloroquine or 10 μM hydroxychloroquine (qRT-PCR) (SARS-CoV-2 [1]; [3]): significantly higher
generation of SARS-CoV-2 proteins (densitometric evaluation of nucleoprotein in virus fraction) (SARS-CoV-2 [2]; 100 nM to 100 μM): inhibited in a dose-dependent manner
inhibition of SARS-CoV-2 replication (Western blot) (SARS-CoV-2 [2]; 100 nM, 1 μM, 10 μM and 100 μM): dose-dependent inhibition
block of virus replication (Western blot) (SARS-CoV-2 [2]; 100 μM): complete block of virus replication
inhibition of SARS-CoV-2 protein generation compared with same/respective concentration of chloroquine or hydroxychloroquine (densitometry) (SARS-CoV-2 [2]): higher percentage
reduction compared with 10 μM chloroquine or 10 μM hydroxychloroquine (Western blot) (SARS-CoV-2 [2]; [3]): significantly higher
